According to the PolyMetriX glass transition set:
± gives the standard deviation of the reports.

Structure (SMILES) | glass transition temperature [°C]
*C(=O)Oc1ccc(C(C)(C)c2ccc(OC(=O)c3ccc4c(c3)C(=O)N(c3ccc(Oc5ccc(N6C(=O)c7ccc(*)cc7C6=O)cc5)cc3)C4=O)cc2)cc1 (repeat unit) | 200.00
*CC(*)c1cc(C(=O)OCCCC)ccc1-c1ccc(OCCCCCCCC)cc1 (repeat unit) | 74.00
*CC(=O)Nc1ccc(Oc2cccc(NC(=O)CN3C(=O)c4ccc(C(=O)c5ccc6c(c5)C(=O)N(*)C6=O)cc4C3=O)c2)cc1 (repeat unit) | 226.00
*C(F)(F)C(*)(F)OC(F)(F)F (repeat unit) | -5.00
*CCOCCC(=O)O* (repeat unit) | -35.00
*Oc1ccc(C(CC)(c2ccccc2)c2ccc(OC(*)=S)cc2)cc1 (repeat unit) | 173.00
*Oc1ccc(C(C)(C)c2ccc(OC(=O)c3ccc4c(c3)C(C)(c3ccc(C(*)=O)cc3)CC4(C)C)cc2)cc1 (repeat unit) | 265.00
*CC(F)(F)C(F)(F)C(F)(F)COC(=O)c1ccc(OCCCCC)c(C(=O)O*)c1 (repeat unit) | 9.00
*Oc1ccc(CC(NC(=O)CCc2ccc(OC(=O)COCCOCC(*)=O)cc2)C(=O)OC)cc1 (repeat unit) | 63.00
*CC(=O)NCCCCCCNC(=O)COC(=O)CCCCCCCCC(=O)O* (repeat unit) | 2.00
*CCOC(=O)Nc1ccc(C)c(NC(=O)OCCOc2ccc(C3(c4ccc(O*)cc4)c4ccccc4-c4ccccc43)cc2)c1 (repeat unit) | 175.00
*c1ccc(-c2ccc(-c3ccc(-c4ccc([Si](*)(CCCC)CCCC)s4)s3)s2)s1 (repeat unit) | 1.00
*Oc1ccc(CC(NC(=O)CCc2ccc(OC(=O)COCCOCC(*)=O)cc2)C(=O)OCC(C)C)cc1 (repeat unit) | 50.00
*CC(C[N-][N+]#N)O* (repeat unit) | -35.00
*C(=O)c1ccc2c(c1)C(=O)N(c1ccc(Oc3ccc(C(=O)c4cccc(C(=O)c5ccc(Oc6ccc(N7C(=O)c8ccc(*)cc8C7=O)cc6C(F)(F)F)cc5)n4)cc3)c(C(F)(F)F)c1)C2=O (repeat unit) | 225.20
*CCN(CCOC(=O)c1ccc(C(=O)O*)c(OCCC)c1)c1ccc(/N=N/c2ccc(-c3nc4cc([N+](=O)[O-])ccc4[nH]3)cc2)cc1 (repeat unit) | 152.00
*Nc1cc(NC(=O)c2cccc(C(*)=O)c2)cc(-c2nnc(-c3ccccn3)o2)c1 (repeat unit) | 155.00
*CC(*)(C)C(=O)OCCOCCOCC1(C)COCCOCCOCCOC1 (repeat unit) | 10.00
*c1ccc(-c2ccc3c(c2)C(CCCCCCCC)(CCCCCCCC)c2cc(*)ccc2-3)cc1 (repeat unit) | 81.00
*c1cc(Br)c(OC(=O)c2ccc(C(=O)Oc3c(Br)cc(C4(*)OC(=O)c5ccccc54)cc3Br)cc2)c(Br)c1 (repeat unit) | 319.00
*CCCCCSS* (repeat unit) | -72.00
*Cc1ccccc1CN(CC)c1ccc(/C=C(\C#N)C(=O)Nc2cccc(NC(=O)/C(C#N)=C/c3ccc(N(*)CC)cc3)c2)cc1 (repeat unit) | 188.00
*CCC[Si](*)(C)O[Si](C)(C)CCCOc1ccc(-c2ccc(C#N)cc2)cc1 (repeat unit) | -4.60

Structure (SMILES) | glass transition temperature [°C]
*c1ccc(-c2cc(-c3ccc(-c4ccccc4)cc3)cc(-c3ccc(N4C(=O)c5ccc(NC(=O)Nc6ccc(Oc7ccccc7-c7ccccc7Oc7ccc(NC(=O)Nc8ccc9c(c8)C(=O)N(*)C9=O)cc7)cc6)cc5C4=O)cc3)n2)cc1 (repeat unit) | 249.00
*c1cc(OCCCCCCCCCCCC)cc(N2C(=O)c3ccc(Oc4ccc5c(c4)C(=O)N(*)C5=O)cc3C2=O)c1 (repeat unit) | 162.00
*Oc1ccc(C(=O)Nc2ccc(S(=O)(=O)c3ccc(NC(=O)c4ccc(Oc5ccc(C(=O)c6ccc(S(=O)(=O)c7ccc(C(=O)c8ccc(*)cc8)cc7)cc6)cc5)cc4)cc3)cc2)cc1 (repeat unit) | 260.00
*C(=O)c1ccc2c(c1)C(=O)N(c1cccc(P(=O)(c3ccccc3)c3cccc(N4C(=O)c5ccc(*)cc5C4=O)c3)c1)C2=O (repeat unit) | 273.00
*CC(*)CCC1CCCCC1 (repeat unit) | 40.00
*C(=O)c1cccc(C(=O)N(*)c2ccccc2)c1 (repeat unit) | 148.00
*Oc1ccc(C(C)(C)c2ccc(OC(=O)NC(=O)c3cc(C(=O)NC(*)=O)cc(C(C)(C)C)c3)cc2)cc1 (repeat unit) | 123.50
*C(=O)Oc1ccc(OC(=O)c2ccc3c(c2)C(=O)N(c2ccc(Oc4ccc(Oc5ccc(N6C(=O)c7ccc(*)cc7C6=O)cc5)cc4)cc2)C3=O)cc1 (repeat unit) | 230.00
*CC(COC(=O)O*)OCCCCCCCCCCCOc1ccc(/C=C/c2ccc([N+](=O)[O-])cc2)cc1 (repeat unit) | 21.00
*C(=O)Nc1ccc(Oc2ccc(NC(=O)c3ccc4c(c3)C(=O)N(c3ccc(Oc5ccc(N6C(=O)c7ccc(*)cc7C6=O)cc5)cc3)C4=O)cc2)cc1 (repeat unit) | 282.00
*CC(*)C(=O)OCC(F)(F)C(F)(F)C(F)(F)C(F)(F)F (repeat unit) | -37.00
*CC(*)C(=O)OCCn1c2ccccc2c2ccccc21 (repeat unit) | 106.80
*c1ccc2c(c1)Sc1cc(-c3ccc(-c4ccc(*)s4)s3)ccc1N2CCCCCCCCCC (repeat unit) | 142.00
*C(=O)c1ccc(C(=O)c2ccc(Oc3ccc(C(C)(C)c4ccc(Oc5ccc(*)s5)cc4)cc3)s2)cc1 (repeat unit) | 154.00
*CCCOc1ccc(C(=O)OC(=O)c2ccc(O*)cc2)cc1 (repeat unit) | 95.00
*CC(=O)Nc1cccc2c(NC(=O)COc3ccc4ccccc4c3Sc3c(O*)ccc4ccccc34)cccc12 (repeat unit) | 264.00
*/C=C/c1cc(OCCc2ccccc2)c(*)cc1OC (repeat unit) | 121.00
*Oc1ccc(S(=O)(=O)c2ccc(Oc3ccc(NC(=O)c4cc(NC(=O)c5ccc(OC(C)=O)cc5)cc(C(=O)Nc5ccc(*)cc5)c4)cc3)cc2)cc1 (repeat unit) | 263.00
*CCCCCC(=O)O* (repeat unit) [Poly(caprolactone)] | 55.0 ± 78
*Oc1ccc(C(c2ccc(OC(=O)Nc3ccc(Cc4ccc(NC(*)=O)cc4)cc3)cc2)(C(F)(F)F)C(F)(F)F)cc1 (repeat unit) | 81.00
*OC1CCC(OC(=O)OCCCCCCCOC(*)=O)CC1 (repeat unit) | -5.00
*CCCCCCCCCCCCc1nc2ccc(-c3ccc4nc(*)oc4c3)cc2o1 (repeat unit) | 55.00
*CCCCCCCCOC(=O)c1ccc2cc(C(=O)O*)ccc2c1 (repeat unit) | 60.00

Structure (SMILES) | glass transition temperature [°C]
*CC(*)c1ccccc1C(=O)OCCC (repeat unit) | 108.00
*c1ccc(Oc2ccc(C(=O)c3ccc(Oc4ccc(-c5nc(-c6cccc(-c7nc(*)c(-c8ccccc8)[nH]7)c6)[nH]c5-c5ccccc5)cc4)cc3)cc2)cc1 (repeat unit) | 282.00
*CCCCCCCCCCC(Cl)C(*)Cl (repeat unit) | -32.00
*CCN(*)C(C)=O (repeat unit) | 80.00
*CC(*)c1ccc(COc2ccc(-c3ccc(-c4ccc(C)s4)c4nsnc34)cc2)cc1 (repeat unit) | 130.00
*c1ccc(Cc2ccc(N3C(=O)c4ccc(Sc5ccc6c(c5)C(=O)N(*)C6=O)cc4C3=O)cc2)cc1 (repeat unit) | 265.00
*Nc1cccc(NC(=C(C#N)C#N)c2cccc(C(*)=C(C#N)C#N)c2)c1 (repeat unit) | 278.00
*Nc1ccc(CC(C)(C)NC(=O)c2ccc(C(*)=O)cc2)cc1 (repeat unit) | 175.00
*CC(*)C(=O)Oc1ccc(Cl)cc1Cl (repeat unit) | 60.00
*Cc1ccc(COP(=O)(/N=N/c2ccc(Oc3ccc(/N=N/P(=O)(O*)OC)cc3)cc2)OC)cc1 (repeat unit) | 50.00
*c1cc(Br)c(-c2c(Br)cc(N3C(=O)c4ccc(-c5ccc6c(c5)C(=O)N(*)C6=O)cc4C3=O)cc2C(=O)OCCCC)c(C(=O)OCCCC)c1 (repeat unit) | 196.00
*c1ccc(Oc2ccc(C3(c4ccc(Oc5ccc(-c6ccc(*)s6)cc5C(F)(F)F)cc4)c4ccccc4-c4ccccc43)cc2)c(C(F)(F)F)c1 (repeat unit) | 169.00
*CC(*)OC(=O)C(C)(C)CCC (repeat unit) | 10.00
*NC(CCC(=O)OCCCCC)C(*)=O (repeat unit) | -20.00
*CCCCCNC(=S)N* (repeat unit) | 55.00
*c1ccc(Oc2ccc(Oc3ccc(Oc4ccc(-c5cnc6ccc(-c7ccc8nc(*)cnc8c7)cc6n5)cc4)cc3)cc2)cc1 (repeat unit) | 216.00
*Oc1ccc(Oc2ccc(S(=O)(=O)c3ccc(Oc4ccc(Oc5cccc(*)n5)cc4)cc3)cc2)cc1 (repeat unit) | 158.00
*c1ccc(Oc2ccc(N3C(=O)c4ccc(Oc5ccc(S(=O)(=O)c6ccc(Oc7ccc8c(c7)C(=O)N(*)C8=O)cc6)cc5)cc4C3=O)cc2)cc1 (repeat unit) | 260.00
*CCCCCOC(=O)CCCCCCCCCCN1C(=O)c2ccc(-c3ccc(-c4ccc5c(c4)C(=O)N(CCCCCCCCCCC(=O)OCCCCCN4C(=O)c6ccc(-c7ccc8c(c7)C(=O)N(*)C8=O)cc6C4=O)C5=O)cc3)cc2C1=O (repeat unit) | 41.00
*CCN(*)C(=O)c1cc(F)cc(F)c1 (repeat unit) | 106.00
*CC(O*)C1CC(F)(F)C1(F)F (repeat unit) | -25.00
*Oc1ccc(NC(=O)Nc2ccccc2CCc2ccccc2NC(=O)Nc2ccc(*)cc2)cc1 (repeat unit) | 232.00
